Laboratory results from article PMC11725774 (Cancer Research Communications, 2025).
Like-named read-outs stand apart in the source and are kept apart here.

Columns and labels:
[1] = tested on: p-JAK1, p-JAK2, p-STAT3, p-STAT5 in MOLM-14 cells cocultured with HS-5 cells; assay: HS-5 stromal coculture Western blot; type: cell-based, human; conditions: concentrations <1 μmol/L; MOLM-14 cocultured with HS-5
Experimental: Cells were treated as described in respective Results sections and then lysed with RIPA buffer. Western blot analyses were performed with antibodies capable of detecting both total and phosphorylated forms of each kinase purchased from commercial sources. Information on the antibodies used is provided in the Supplementary Materials section.
HS-5 cells were obtained from ATCC. The HS-5 stromal cells (5 × 10^5 cells/well) were seeded into six-well plates, and 24 hours later, MOLM-14 cells (1 × 10^6 cells/well) were seeded into the same plate and then cultured for 48 hours. Cultures were then exposed to test drugs for 2 hours, harvested, and lysates were prepared for Western blotting. For stimulation studies, MOLM-14 or KG-1a cells were seeded at 5.0 to 6.0 × 10^6 cells/well into six-well plates in 2 mL medium. Cells were stimulated with 500 μg/mL fibrinogen (Sigma-Aldrich, Catalog # F3879) for 1 hour at 37°C. Alternatively, they were treated with 10 μg/mL IgG (Invitrogen, Catalog # 31154) for 10 minutes on ice followed by IgG cross-linking with 1 μg/mL anti–human IgG antibody for 10 minutes on ice. After these incubations, the media were removed and the cells were washed with cold PBS, lysed, and analyzed by Western blotting.

[2] = tested on: Ba/F3 cells FLT3 D835Y; assay: Growth inhibition of Ba/F3 cells; type: cell-based, murine; conditions: Mus musculus, BaF3; Ba/F3 FLT3 D835Y; mean ± SD; read-out: GI50
Experimental: (§1) MV-4-11 cells expressing NRAS^G12D were prepared by transduction with a lentiviral vector encoding the NRAS^G12D mutation. Assays using a panel of parental Ba/F3 into which an additional copy of either WT or a mutant form of FLT3 was introduced were performed at Kyinno Biotechnology Co., Ltd. All cell lines were short tandem repeat authenticated at ATCC or at DSMZ when originally obtained, and no further authentication was done after receipt of the cells in the laboratory.
(§2) Assays using Ba/F3 cells expressing WT and mutant forms of FLT3 were performed by Kyinno Biotechnology. The cells were cultured in the medium recommended by the source for each cell line. Growth inhibition assays were performed using either Cell Titer 96 Aqueous One Solution Cell Proliferation assay (Promega, # G3581) or CCK8 (Dojindo, # CK-04). […] IC50 values were determined from growth inhibition curves fitted using GraphPad Prism and a nonlinear regression model with sigmoidal dose response. Unless otherwise indicated, data are presented as mean ± SEM.

[3] = tested on: Ba/F3 cells FLT3 ITD/F691L; assay: Growth inhibition of Ba/F3 cells; type: cell-based, murine; conditions: Mus musculus, BaF3; Ba/F3 FLT3 ITD/F691L; mean ± SD; read-out: GI50
Experimental: as §1, §2

[4] = tested on: Ba/F3 cells FLT3 ITD; assay: Growth inhibition of Ba/F3 cells; type: cell-based, murine; conditions: Mus musculus, BaF3; Ba/F3 FLT3 ITD; mean ± SD; read-out: GI50
Experimental: as §1, §2

[5] = tested on: Ba/F3 cells FLT3 ITD/D835Y; assay: Growth inhibition of Ba/F3 cells; type: cell-based, murine; conditions: Mus musculus, BaF3; Ba/F3 FLT3 ITD/D835Y; mean ± SD; read-out: GI50
Experimental: as §1, §2

[6] = tested on: Ba/F3 cells FLT3 WT; assay: Growth inhibition of Ba/F3 cells; type: cell-based, murine; conditions: Mus musculus, BaF3; Ba/F3 FLT3 WT; mean ± SD; read-out: GI50
Experimental: as §1, §2

[7] = tested on: TUS/R line 3 (MOLM-14); assay: Growth inhibition of TUS-resistant subline; type: cell-based, human; conditions: Homo sapiens; for GI50: MOLM-14, read-out: GI50 (nM) TUS/R line 3, mean ± SEM (Supplementary Table 6)
[8] = tested on: MV-4-11 NRAS G12D Clone 4; assay: Growth inhibition of NRAS G12D clone; type: cell-based, human; conditions: for GI50: Homo sapiens, MV4-11, MV-4-11 NRAS G12D, high expression, mean ± SEM, read-out: GI50 (nM) Clone 4
Experimental: as §1, §2

[9] = tested on: MV-4-11 NRAS G12D Clone 15; assay: Growth inhibition of NRAS G12D clone; type: cell-based, human; conditions: for GI50: Homo sapiens, MV4-11, MV-4-11 NRAS G12D, mean ± SEM
Experimental: as §1, §2

[10] = tested on: MV-4-11 NRAS G12D Clone 1; assay: Growth inhibition of NRAS G12D clone; type: cell-based, human; conditions: for GI50: Homo sapiens, MV4-11, MV-4-11 NRAS G12D, mean ± SEM
Experimental: as §1, §2

[11] = tested on: MOLM-13 cells; assay: Growth inhibition of AML cell line; type: cell-based; conditions: Homo sapiens, mean ± SD
Experimental: as §1, §2

[12] = target: FLT3 D835Y (Homo sapiens, UniProt P36888, D835Y); assay: Biochemical enzyme activity screening assay; conditions: kinase FLT3 D835Y; mean ± SD
[13] = tested on: TUS/R line 4 (MOLM-14); assay: Growth inhibition of TUS-resistant subline; type: cell-based, human; conditions: Homo sapiens; for GI50: MOLM-14, read-out: GI50 (nM) TUS/R line 4, mean ± SEM (Supplementary Table 6)
[14] = tested on: MOLM-14 cells (parental); assay: Growth inhibition of AML cell line; type: cell-based, human; conditions: Homo sapiens, MOLM-14
Experimental: as §1, §2

[15] = tested on: MV-4-11 cells; assay: Growth inhibition of AML cell line; type: cell-based, human; conditions: Homo sapiens, MV4-11
Experimental: as §1, §2

[16] = tested on: TUS/R MOLM-14 cells; assay: Growth inhibition of TUS-resistant sublines versus parental; type: cell-based, human
[17] = tested on: TUS/R line 1 (MOLM-14); assay: Growth inhibition of TUS-resistant subline; type: cell-based; conditions: Homo sapiens, MOLM-14, read-out: IC50 (nmol/L), Mean ± SEM, TUS/R line 1
[18] = tested on: TUS/R line 2 (MOLM-14); assay: Growth inhibition of TUS-resistant subline; type: cell-based; conditions: Homo sapiens, MOLM-14, read-out: IC50 (nmol/L), Mean ± SEM, TUS/R line 2
[19] = mean ± SEM (Supplementary Table 6), read-out: GI50 (nM) Parental MOLM-14 (converted)
[20] = mean ± SD (Supplementary Table 4), read-out: GI50
[21] = MV-4-11, mean ± SD (Supplementary Table 4), read-out: GI50
[22] = mean ± SEM (Supplementary Table 7), read-out: GI50 (nM) Parental (MV-4-11)
[23] = 13 to […]-fold increase in NRAS G12D expression

SMILES | GI50 [7] [nM] | GI50 [13] [nM] | GI50 [8] [nM] | GI50 [9] [nM] | GI50 [10] [nM] | GI50 [14, 19] [nM] | GI50 [15, 22] [nM] | fold hypersensitive, TUS/R versus parental MOLM-14 [16] | further results
CCc1nc(C(N)=O)c(Nc2ccc(N3CCC(N4CCN(C)CC4)CC3)c(OC)c2)nc1NC1CCOCC1 [Gilteritinib, gilteritinib] | 118 | 128 | 51 ± 12.2 | 5.6 ± 1.1 | 3.3 ± 0.7 | 8.6 | 2.4 ± 0.7 |  | inhibition of p-JAK1, p-JAK2, p-STAT3, or p-STAT5 [1]: Neither TUS nor gilteritinib inhibited; GI50 [2]: 2.3 ± 0.7 nM; GI50 [3]: 33 ± 6.2 nM; GI50 [4]: 1.2 ± 0.2 nM; GI50 [5]: 4.4 ± 0.6 nM; GI50 [6]: 7 ± 1.5 nM; GI50 [11]: 8.4 ± 2.9 nM; GI50 [12]: 0.5 ± 0.1 nM; GI50 [14, 20]: 6.1 ± 2.8 nM; GI50 [15, 21]: 2 ± 0.2 nM
COc1cc(Nc2ncc(F)c(Nc3ccc4c(n3)N(COP(=O)(O)O)C(=O)C(C)(C)O4)n2)cc(OC)c1OC [Fostamatinib, fostamatinib] | 176 ± 32.9 | 459 ± 86.2 |  |  |  |  |  | not more sensitive | 
CC1(C)CCC(CN2CCN(c3ccc(C(=O)NS(=O)(=O)c4ccc(NCC5CCOCC5)c([N+](=O)[O-])c4)c(Oc4cnc5[nH]ccc5c4)c3)CC2)=C(c2ccc(Cl)cc2)C1 [Venetoclax, venetoclax] |  |  | 2260 ± 156 | 4.9 ± 1.3 | 5.5 ± 1.4 |  | 10.5 ± 1.7 |  | IC50 ([7]; MOLM-14, read-out: IC50 (nmol/L), Mean ± SEM, TUS/R line 3): 1.1 ± 0.2 nmol/L; fold resistant / loss of sensitivity, clone 4 versus parental MV-4-11 ([8]; high NRAS G12D expression): 214 fold; change in sensitivity, clone 15 [9, 23]: did not alter sensitivity; change in sensitivity, clone 1 [10, 23]: did not alter sensitivity; IC50 [17]: 1.3 ± 0.1 nmol/L; IC50 [18]: 1.5 ± 0.05 nmol/L; IC50 ([13]; MOLM-14, read-out: IC50 (nmol/L), Mean ± SEM, TUS/R line 4): 5 ± 0.8 nmol/L; IC50 ([14]; growth inhibition, three independent experiments, read-out: IC50 (nmol/L), Mean ± SEM, MOLM-14 parental): 3020 ± 464 nmol/L
CO[C@@H]1[C@H](N(C)C(=O)c2ccccc2)C[C@H]2O[C@]1(C)n1c3ccccc3c3c4c(c5c6ccccc6n2c5c31)C(=O)NC4 [Midostaurin, midostaurin] |  |  |  |  |  |  |  |  | GI50 [2]: 9 ± 2.7 nM; GI50 [3]: 16 ± 3.5 nM; GI50 [4]: 5.1 ± 0.1 nM; GI50 [5]: 21 ± 1.1 nM; GI50 [11]: 19 ± 14 nM; GI50 [14, 20]: 12 ± 7.1 nM; GI50 [15, 21]: 6 ± 1.4 nM
COC1=CC(c2cc3ccccc3[nH]2)=N/C1=C\c1[nH]c(C)cc1C [Obatoclax, obatoclax] | 164 ± 14.7 | 142 ± 9.1 |  |  |  | 98.2 ± 7.7 |  | no increase in sensitivity | 
Cc1ccc2c(Nc3cccc(Cl)c3F)nccc2c1NC(=O)c1csc2c(N)ncnc12 [Belvarafenib, belvarafenib] |  |  | 209 ± 33.9 | 104 ± 11.1 | 187 ± 38.6 |  | 750 ± 92.8 |  | 
Cc1cnc(-c2ccc(-c3ccc(NC(=O)Nc4c(F)cc(F)cc4F)cc3F)c3c2C(=O)NC3)[nH]1 [Luxeptinib] | 0.1 ± 0.01 | 0.1 ± 0.01 |  |  |  | 0.2 ± 0.01 |  |  | 
CC(=O)Nc1cccc(-n2c(=O)n(C3CC3)c(=O)c3c(Nc4ccc(I)cc4F)n(C)c(=O)c(C)c32)c1 [Trametinib, trametinib] | 67 ± 12.8 | 101.5 ± 0.4 | 2.5 ± 0.7 | 2.3 ± 0.8 | 1.6 ± 0.4 | 153 ± 14.5 | 6.7 ± 1.6 | ~1.9 fold | 
